The results in this text go back to ChEMBL document CHEMBL4715913, “Discovery of benzo[f]pyrido[4,3-b][1,4]oxazepin-10-one derivatives as orally available bromodomain and extra-terminal domain (BET) inhibitors with efficacy in an in vivo psoriatic animal model” (Bioorg Med Chem, 2021).

The source made the active and inactive calls. No cut-off for these calls is given here.

The term IC50 denotes the concentration at which inhibition is half-maximal. What is called EC50 is the concentration at which the effect is half-maximal. As usually defined, the Kd is the equilibrium constant for the complex coming apart. Usually pKa stands for the pH at which an ionisable group is half protonated. Read a high pKa as a group that holds its proton tightly.

Series [1] addresses T1, Voltage-gated inwardly rectifying potassium channel KCNH2 (Homo sapiens, UniProt Q12809). Put plainly: Inhibition of human ERG stably expressed in CHO cells at holding potential of -80 mV incubated for 12 mins.
Series [2] deals with T2, Bromodomain-containing protein 4 (Homo sapiens, UniProt O60885). Put plainly: Inhibition of BRD4-BD1 (unknown origin) by TR-FRET assay. (In general: TR-FRET usually uses a lanthanide donor and a delayed reading to cut background.)
Series [3] has as its system PBMC. The series is described as follows: Inhibition of IL-6 production in LPS-induced human PBMC preincubated for 1 hr followed by LPS-stimulation and measured after 20 hrs by magnetic beads technique based assay. In kind it is functional, tissue-based. Conditions: time 21.0 hrs.
For series [4], the target named is T3, Mitogen-activated protein kinase 7 (Homo sapiens, UniProt Q13164). Put plainly: Inhibition of recombinant human ERK5 using myelin basic protein as substrate by [gamm33P]ATP based HotSpot radiometric assay.
The nature of series [5]: Stability of compound in human liver microsomes assessed as parent compound remaining after 1 hr.
For series [6], the target named is T2, Bromodomain-containing protein 4. Put plainly: Inhibition of BRD4 in human PBMC assessed as reduction in LPS-induced TNFalpha secretion preincubated for 1 hr followed by LPS-stimulation and measured after 20 hrs by magnetic beads technique based assay.
In series [7] the test system is PBMC. Put plainly: Inhibition of MCP-1 production in LPS-induced human PBMC preincubated for 1 hr followed by LPS-stimulation and measured after 20 hrs by magnetic beads technique based assay. The class given is functional, tissue-based. The settings on record: time 21.0 hrs.
The target of series [8] is T3, Mitogen-activated protein kinase 7. Put plainly: Inhibition of ERK5 (unknown origin).
Series [9] deals with T2, Bromodomain-containing protein 4. Put plainly: Binding affinity to BRD4-BD1 (unknown origin).
Series [10] has as its target T1, Voltage-gated inwardly rectifying potassium channel KCNH2. Put plainly: Inhibition of human ERG.
Series [11] in a line: Dissociation constant, pKa of compound. In kind it is physicochemical.
In series [12] the target is T2, Bromodomain-containing protein 4. Put plainly: Inhibition of BRD4-BD1 (unknown origin).
The target in series [13] is T4, Bromodomain testis-specific protein (Homo sapiens, UniProt Q58F21). Put plainly: Binding affinity to human partial length BRDT-BD2 (K250 to E382 residues) expressed in bacterial expression system by BROMOscan method.
Series [14] addresses T4, Bromodomain testis-specific protein. Put plainly: Binding affinity to human partial length BRDT-BD1 (N21 to E137 residues) expressed in bacterial expression system by BROMOscan method.
The target in a further series is CREB-binding protein (Homo sapiens, UniProt Q92793). The series is described as follows: Binding affinity to human partial length CREBBP (R1081 to G1197 residues) expressed in bacterial expression system by BROMOscan method.
Sequence of CREB-binding protein (Q92793 whole entry, the tested form may be a part): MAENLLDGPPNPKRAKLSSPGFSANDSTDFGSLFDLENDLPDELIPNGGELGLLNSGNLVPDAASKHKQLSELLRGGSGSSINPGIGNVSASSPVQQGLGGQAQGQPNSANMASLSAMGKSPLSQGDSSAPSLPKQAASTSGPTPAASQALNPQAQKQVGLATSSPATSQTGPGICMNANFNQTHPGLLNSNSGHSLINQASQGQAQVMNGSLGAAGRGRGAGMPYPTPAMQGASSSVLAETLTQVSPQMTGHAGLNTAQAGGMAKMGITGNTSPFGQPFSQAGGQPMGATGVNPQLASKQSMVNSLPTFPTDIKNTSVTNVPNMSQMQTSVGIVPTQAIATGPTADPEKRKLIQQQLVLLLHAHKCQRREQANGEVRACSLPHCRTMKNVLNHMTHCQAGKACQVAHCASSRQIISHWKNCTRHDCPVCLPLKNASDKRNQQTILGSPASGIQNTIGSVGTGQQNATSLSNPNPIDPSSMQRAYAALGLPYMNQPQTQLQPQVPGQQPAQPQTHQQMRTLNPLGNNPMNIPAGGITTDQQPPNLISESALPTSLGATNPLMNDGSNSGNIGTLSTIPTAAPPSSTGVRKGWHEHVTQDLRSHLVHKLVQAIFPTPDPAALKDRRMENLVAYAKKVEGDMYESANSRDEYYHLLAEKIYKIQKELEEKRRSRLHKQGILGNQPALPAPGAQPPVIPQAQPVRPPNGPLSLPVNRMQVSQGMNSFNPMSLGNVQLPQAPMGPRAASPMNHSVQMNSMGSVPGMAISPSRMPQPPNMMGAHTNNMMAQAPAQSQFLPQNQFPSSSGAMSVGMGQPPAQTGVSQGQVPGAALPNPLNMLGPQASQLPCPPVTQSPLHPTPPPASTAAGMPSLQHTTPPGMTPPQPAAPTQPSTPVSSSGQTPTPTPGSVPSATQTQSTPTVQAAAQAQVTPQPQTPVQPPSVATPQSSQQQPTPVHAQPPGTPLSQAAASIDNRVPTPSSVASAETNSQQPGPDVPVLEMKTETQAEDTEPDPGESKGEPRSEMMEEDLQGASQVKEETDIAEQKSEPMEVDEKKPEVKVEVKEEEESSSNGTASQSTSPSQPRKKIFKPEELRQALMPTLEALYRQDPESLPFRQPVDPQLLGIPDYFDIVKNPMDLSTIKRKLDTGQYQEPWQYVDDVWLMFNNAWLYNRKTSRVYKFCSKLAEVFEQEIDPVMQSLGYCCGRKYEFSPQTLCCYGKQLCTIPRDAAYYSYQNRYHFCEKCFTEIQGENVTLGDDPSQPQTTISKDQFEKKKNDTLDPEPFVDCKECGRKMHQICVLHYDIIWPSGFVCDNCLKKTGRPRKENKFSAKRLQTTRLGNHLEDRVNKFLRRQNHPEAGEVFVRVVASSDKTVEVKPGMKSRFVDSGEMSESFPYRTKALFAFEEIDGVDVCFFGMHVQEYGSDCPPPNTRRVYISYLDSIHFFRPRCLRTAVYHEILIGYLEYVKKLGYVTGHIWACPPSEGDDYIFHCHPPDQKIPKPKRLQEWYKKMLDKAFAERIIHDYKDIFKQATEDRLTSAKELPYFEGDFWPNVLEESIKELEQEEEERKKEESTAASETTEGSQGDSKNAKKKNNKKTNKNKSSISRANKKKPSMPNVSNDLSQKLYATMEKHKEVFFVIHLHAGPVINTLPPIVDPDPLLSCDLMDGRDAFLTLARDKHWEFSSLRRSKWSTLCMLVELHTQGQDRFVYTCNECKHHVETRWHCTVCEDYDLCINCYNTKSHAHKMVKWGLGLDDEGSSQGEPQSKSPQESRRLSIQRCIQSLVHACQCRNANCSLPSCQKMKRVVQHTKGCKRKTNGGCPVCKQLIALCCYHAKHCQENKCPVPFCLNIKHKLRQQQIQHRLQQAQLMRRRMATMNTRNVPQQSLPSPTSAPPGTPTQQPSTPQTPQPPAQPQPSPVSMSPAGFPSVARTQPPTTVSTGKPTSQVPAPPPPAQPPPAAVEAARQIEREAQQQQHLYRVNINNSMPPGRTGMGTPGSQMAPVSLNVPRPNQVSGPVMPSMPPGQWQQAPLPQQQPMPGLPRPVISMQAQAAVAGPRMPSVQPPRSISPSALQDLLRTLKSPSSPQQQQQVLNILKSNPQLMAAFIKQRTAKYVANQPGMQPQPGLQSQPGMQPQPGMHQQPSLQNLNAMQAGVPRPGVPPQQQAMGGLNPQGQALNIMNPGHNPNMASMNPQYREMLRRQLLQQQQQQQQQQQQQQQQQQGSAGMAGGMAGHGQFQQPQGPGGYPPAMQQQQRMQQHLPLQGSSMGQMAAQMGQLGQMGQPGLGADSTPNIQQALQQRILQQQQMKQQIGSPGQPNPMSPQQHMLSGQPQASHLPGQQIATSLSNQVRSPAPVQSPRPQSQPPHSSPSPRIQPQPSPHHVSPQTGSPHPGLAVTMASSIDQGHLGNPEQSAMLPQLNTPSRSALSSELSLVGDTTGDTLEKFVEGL

T1 sequence (Q12809 whole entry): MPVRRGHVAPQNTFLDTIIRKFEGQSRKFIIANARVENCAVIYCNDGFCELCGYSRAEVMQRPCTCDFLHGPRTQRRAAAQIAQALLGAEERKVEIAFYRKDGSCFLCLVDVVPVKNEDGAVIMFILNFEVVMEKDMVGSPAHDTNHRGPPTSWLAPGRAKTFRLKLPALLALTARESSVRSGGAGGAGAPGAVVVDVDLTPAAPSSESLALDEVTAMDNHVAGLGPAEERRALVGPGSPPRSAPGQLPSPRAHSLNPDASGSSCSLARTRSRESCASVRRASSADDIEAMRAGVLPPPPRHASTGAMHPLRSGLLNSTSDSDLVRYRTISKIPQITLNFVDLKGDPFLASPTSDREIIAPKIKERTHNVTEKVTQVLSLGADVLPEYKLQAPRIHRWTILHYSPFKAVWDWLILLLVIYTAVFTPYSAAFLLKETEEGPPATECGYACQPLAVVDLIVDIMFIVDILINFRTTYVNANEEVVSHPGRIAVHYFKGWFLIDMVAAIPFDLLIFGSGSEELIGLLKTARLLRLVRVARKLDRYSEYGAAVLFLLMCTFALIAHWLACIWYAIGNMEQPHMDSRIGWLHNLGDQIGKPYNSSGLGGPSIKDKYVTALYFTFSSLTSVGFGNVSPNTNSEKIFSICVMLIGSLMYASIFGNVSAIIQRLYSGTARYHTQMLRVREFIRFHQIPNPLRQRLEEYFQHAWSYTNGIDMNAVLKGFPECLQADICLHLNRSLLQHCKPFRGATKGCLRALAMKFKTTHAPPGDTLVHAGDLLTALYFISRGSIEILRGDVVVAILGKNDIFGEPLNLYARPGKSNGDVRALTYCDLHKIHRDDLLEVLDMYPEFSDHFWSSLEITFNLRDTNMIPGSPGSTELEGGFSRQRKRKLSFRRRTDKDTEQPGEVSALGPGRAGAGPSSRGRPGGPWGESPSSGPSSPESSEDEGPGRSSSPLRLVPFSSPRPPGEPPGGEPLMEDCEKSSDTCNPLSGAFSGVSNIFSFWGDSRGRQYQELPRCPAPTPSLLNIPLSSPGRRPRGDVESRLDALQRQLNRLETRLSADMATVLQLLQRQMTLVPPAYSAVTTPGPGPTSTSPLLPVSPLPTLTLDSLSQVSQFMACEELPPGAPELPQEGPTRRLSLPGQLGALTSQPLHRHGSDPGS
T3 sequence (Q13164 whole entry): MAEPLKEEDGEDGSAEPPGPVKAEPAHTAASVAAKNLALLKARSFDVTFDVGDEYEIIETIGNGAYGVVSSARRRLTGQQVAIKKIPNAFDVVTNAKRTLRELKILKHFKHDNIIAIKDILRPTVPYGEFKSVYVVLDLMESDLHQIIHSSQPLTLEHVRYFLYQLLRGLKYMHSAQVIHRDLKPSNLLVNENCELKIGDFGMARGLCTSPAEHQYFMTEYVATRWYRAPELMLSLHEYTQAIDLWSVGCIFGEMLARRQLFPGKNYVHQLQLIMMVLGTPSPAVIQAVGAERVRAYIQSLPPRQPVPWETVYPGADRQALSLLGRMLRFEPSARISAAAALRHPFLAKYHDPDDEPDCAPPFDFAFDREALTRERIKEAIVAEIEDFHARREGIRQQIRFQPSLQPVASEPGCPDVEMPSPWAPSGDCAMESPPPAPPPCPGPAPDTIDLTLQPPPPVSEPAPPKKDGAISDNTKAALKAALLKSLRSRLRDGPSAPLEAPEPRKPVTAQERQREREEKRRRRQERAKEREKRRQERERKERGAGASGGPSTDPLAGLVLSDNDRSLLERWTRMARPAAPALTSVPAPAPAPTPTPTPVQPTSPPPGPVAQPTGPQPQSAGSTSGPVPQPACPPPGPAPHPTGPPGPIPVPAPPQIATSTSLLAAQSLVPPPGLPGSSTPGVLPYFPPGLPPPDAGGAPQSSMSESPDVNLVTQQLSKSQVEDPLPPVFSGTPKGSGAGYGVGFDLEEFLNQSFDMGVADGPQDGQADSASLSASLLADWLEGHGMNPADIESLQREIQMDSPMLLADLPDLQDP

On to `CN1C(=O)c2c(F)ccc(F)c2Oc2cc(N[C@H]3CC[C@H](O)CC3)ncc21`, for which the IC50 in series [1] was > 10000 nM; in [2], 2010 nM; in series [4], 213 nM. Besides, the inhibition entry with PBMC [3] and in the series on PBMC [7] was “Active” each time. Further, the share remaining at 1 h in [5] worked out at 90%. The EC50 in [6] came out at 430 nM.

In the case of `CN1C(=O)c2ccccc2N(C)c2cc(N[C@H]3CC[C@H](O)CC3)ncc21`, the IC50 in series [2] was 5990 nM; in series [8] it was 89 nM; in [4] it was 89 nM; in series [10] it was > 10000 nM. In addition, the inhibition entry in the series on PBMC [3] and with PBMC [7] was “Active” each time. Also, the affinity in [9], expressed as Kd, was 130 nM. For the same compound, in series [11], the pKa is 5.06. The EC50 in series [6] amounted to 2110 nM.

For the compound `CCOc1cc(C(=O)N2CCC(N3CCCC3)CC2)ccc1Nc1cc2c(cn1)N(C)C(=O)c1ccccc1N2C`, the IC50 was 11 nM in [8], 320 nM in series [10] and 1290 nM in series [12]. Moreover, the inhibition result in the series with PBMC [3] and in the series on PBMC [7] was “Active” in each case. In series [9], the affinity, expressed as Kd, was 22 nM. For the same compound, the pKa in series [11] stood at 9.7.

Consider `CCO[C@H]1CC[C@H](Nc2cc3c(cn2)N(C)C(=O)c2ccccc2N3C)CC1`, for which the IC50 in series [2] turned out to be 9990 nM; in series [4], 81 nM. Besides, the inhibition result with PBMC [3] and in the series on PBMC [7] was “Active” each time. For the same compound, in series [6], the EC50 was found to be 2740 nM.

Take `CCO[C@@H]1CCCC[C@@H]1Nc1cc2c(cn1)N(C)C(=O)c1ccccc1N2C` (relative stereo): the values for the IC50 in series [2] and in series [4] were 15400 nM and > 10000 nM, respectively. For the same compound, the inhibition result with PBMC [3] and in the series with PBMC [7] was “Active” each time. The EC50 in series [6] stood at 2950 nM.

With `CN1C(=O)c2ccccc2N(C)c2cc(N[C@H]3CC[C@@H](O)CC3)ncc21`, the IC50 in series [2] is 6910 nM; in series [4] it was 2230 nM. Further, the inhibition entry in the series on PBMC [3] and in the series on PBMC [7] was “Active” throughout. In [6], the EC50 was 3070 nM.

As for `CN1C(=O)c2cccc(Cl)c2Oc2cc(N[C@H]3CC[C@H](O)CC3)ncc21`, the IC50 in series [1] is > 10000 nM; in series [2], 12800 nM; in series [4], 1050 nM. Further, the inhibition result in the series with PBMC [3] and in the series with PBMC [7] was “Active” throughout. In addition, the share remaining at 1 h in series [5] was 103%. The EC50 in [6] worked out at 1170 nM.

Consider `CN1C(=O)c2ccccc2Oc2cc(N[C@H]3CC[C@H](O)CC3)ncc21`, for which the IC50 in series [1] was > 10000 nM; in series [2], 9370 nM; in series [4], 266 nM. For the same compound, the inhibition result in the series with PBMC [3] and with PBMC [7] was “Active” in each case. Besides, the amount remaining at 1 h in series [5] is 97%. Also, the EC50 in series [6] was found to be 2700 nM.

`CN1C(=O)c2cccc(F)c2Oc2cc(N[C@H]3CC[C@H](O)CC3)ncc21`: the IC50 in series [1] was > 10000 nM; in series [2] it was 11200 nM; in series [4], 393 nM. Besides, the inhibition result in the series with PBMC [3] and with PBMC [7] was “Active” each time. Moreover, in series [5], the fraction remaining at 1 h was found to be 114%. In addition, in series [6], the EC50 stood at 1720 nM.

Turning to `CN1C(=O)c2ccccc2Sc2cc(N[C@H]3CC[C@H](O)CC3)ncc21`, in [2], the IC50 was > 30000 nM. The inhibition entry in the series on PBMC [3] and in the series on PBMC [7] was “Active” each time.

As for `CCNC(=O)C[C@@H]1N=C(c2ccc(Cl)cc2)c2cc(OC)ccc2-n2c(C)nnc21` [MOLIBRESIB], the Kd in [13] was determined as 60 nM; in [14] it was 112 nM; at CREB-binding protein, 83000 nM. Also, the inhibition result in the series with PBMC [3] and in the series on PBMC [7] was “Active” in each case.

Consider `CN1C(=O)c2ccccc2S(=O)(=O)c2cc(N[C@H]3CC[C@H](O)CC3)ncc21`, for which, in series [2], the IC50 is > 30000 nM. Also, the inhibition entry in the series on PBMC [3] and in the series with PBMC [7] was “Active” each time.

`COc1cccc2c1Oc1cc(N[C@H]3CC[C@H](O)CC3)ncc1N(C)C2=O`: the IC50 in series [1] was > 10000 nM; in series [2], 2820 nM; in series [4], 1100 nM. Further, the inhibition result with PBMC [3] and in the series with PBMC [7] was “Active” each time. In [5], the share remaining at 1 h was determined as 85%. Also, the EC50 in series [6] turned out to be 1380 nM.
